From patent US8497380B2, “Substituted acetophenones useful as PDE4 inhibitors” (Leo Pharma A/S, priority 2006, dated 2013)

System: Human peripheral blood mononuclear cells (PBMC)
Experiment: TNFalfa-Release
Format: cell-based
Conditions: inhibition of TNF-a secretion, PBMC pre-incubated 30 minutes, stimulated 18 hours with lipopolysaccharide
Experimental: Human peripheral blood mononuclear cells (PBMC) are Isolated from buffy coats. The blood is mixed with saline at a ratio of 1:1, and the PBMC is isolated by the use of Lymphoprep Tubes™ (Nycomed, Norway). The PBMC is suspended in RPMI1640 with 2% foetal calf serum (FCS), pen/strep and 2 mM L-glutamine at a concentration of 5×105 c/ml. The cells are pre-incubated for 30 minutes with the test compounds in 96 well tissue culture plates and stimulated for 18 hours with lipopolysaccharide 1 mg/ml (Sigma). The level of TNF-a is measured in the culture supernatant by enzyme immuno assays using primary and secondary biotinylated antibodies from R&D systems. Results are expressed as pIC50 values calculated from inhibition curves using as positive controls the secretion in LPS stimulated wells and as negative controls the secretion in unstimulated cells.

Row | SMILES | IC50 [µM]
1 | COc1ccc(C(=O)Cc2c(Cl)cncc2Cl)c(OCC2CCCCC2)c1OC [Compound 151, 1-(2-Cyclohexylmethoxy-3,4-dimethoxy-phenyl)-2-(3,5-dichloro-pyridin-4-yl)-ethanone] | < 1
2 | COc1ccc(C(=O)Cc2c(Cl)cncc2Cl)c(OCCc2ccc(F)cc2)c1OC [Compound 129, 2-(3,5-Dichloro-pyridin-4-yl)-1-{2-[2-(4-fluoro-phenyl)-ethoxy]-3,4-dimethoxy-phenyl}-ethanone] | < 1
3 | COc1ccc(C(=O)Cc2c(Cl)cncc2Cl)c(OCCOc2ccccc2)c1OC [Compound 122, 2-(3,5-Dichloro-pyridin-4-yl)-1-[3,4-dimethoxy-2-(2-phenoxy-ethoxy)-phenyl]-ethanone] | < 1
4 | COc1ccc(C(=O)Cc2c(Cl)cncc2Cl)c(OCCc2ccc([S+](C)[O-])cc2)c1OC (stereo not shown) [Compound 281, 2-(3,5-Dichloro-pyridin-4-yl)-1-{2-[2-(4-methanesulfinyl-phenyl)-ethoxy]-3,4-dimethoxy-phenyl}-ethanone] | < 1
5 | COc1ccc(C(=O)Cc2c(Cl)cncc2Cl)c(OCC(=O)NC[C@H](O)c2ccccc2)c1OC [Compound 252, (R)-2-{6-[2-(3,5-Dichloro-pyridin-4-yl)-acetyl]-2,3-dimethoxy-phenoxy}-N-(2-hydroxy-2-phenyl-ethyl)-acetamide] | < 1
6 | COc1ccc(C(=O)Cc2c(Cl)cncc2Cl)c(OCC(=O)NCc2cccs2)c1OC [Compound 254, 2-{6-[2-(3,5-Dichloro-pyridin-4-yl)-acetyl]-2,3-dimethoxy-phenoxy}-N-thiophen-2-ylmethyl-acetamide] | < 1
7 | COc1ccc(C(=O)Cc2c(Cl)cncc2Cl)c(OCCc2ccc(C#N)cc2)c1OC [Compound 278, 4-(2-{6-[2-(3,5-Dichloro-pyridin-4-yl)-acetyl]-2,3-dimethoxy-phenoxy}-ethyl)-benzonitrile] | < 1
8 | COc1ccc(C(=O)Cc2c(Cl)cncc2Cl)c(OCC(=O)NCc2ccc(C)cc2)c1OC [Compound 240, 2-{6-[2-(3,5-Dichloro-pyridin-4-yl)-acetyl]-2,3-dimethoxy-phenoxy}-N-(4-methyl-benzyl)-acetamide] | < 1
9 | COc1ccc(C(=O)Cc2c(Cl)cncc2Cl)c(OCc2nc3ccccc3o2)c1OC [Compound 115, 1-[2-(Benzooxazol-2-ylmethoxy)-3,4-dimethoxy-phenyl]-2-(3,5-dichloro-pyridin-4-yl)-ethanone] | < 1
10 | COCCOc1c(C(=O)Cc2c(Cl)cncc2Cl)ccc(OC)c1OC [Compound 109, 2-(3,5-Dichloro-pyridin-4-yl)-1-[3,4-dimethoxy-2-(2-methoxy-ethoxy)-phenyl]-ethanone] | < 1
11 | COc1ccc(C(=O)Cc2c(Cl)cncc2Cl)c(OCc2ccccc2F)c1OC [Compound 161, 2-(3,5-Dichloro-pyridin-4-yl)-1-[2-(2-fluoro-benzyloxy)-3,4-dimethoxy-phenyl]-ethanone] | < 1
12 | COc1ccc(C(=O)Cc2c(Cl)cncc2Cl)c(OCC(=O)N2CCOCC2)c1OC [Compound 204, 2-(3,5-Dichloro-pyridin-4-yl)-1-[3,4-dimethoxy-2-(2-morpholin-4-yl-2-oxo-ethoxy)-phenyl]-ethanone] | < 1
13 | COc1ccc(C(=O)Cc2c(Cl)cncc2Cl)c(OCCc2ccccn2)c1OC [Compound 279, 2-(3,5-Dichloro-pyridin-4-yl)-1-[3,4-dimethoxy-2-(2-pyridin-2-yl-ethoxy)-phenyl]-ethanone] | < 1
14 | C=CCOc1c(OC)ccc(C(=O)Cc2c(Cl)cncc2Cl)c1O [Compound 266, 1-(3-Allyloxy-2-hydroxy-4-methoxy-phenyl)-2-(3,5-dichloro-pyridin-4-yl)-ethanone] | < 1
15 | COc1ccc(C(=O)Cc2c(Cl)cncc2Cl)c(OCC(=O)NCCNC(C)=O)c1OC [Compound 251, N-(2-Acetylamino-ethyl)-2-{6-[2-(3,5-dichloro-pyridin-4-yl)-acetyl]-2,3-dimethoxy-phenoxy}-acetamide] | < 1
16 | COc1ccc(C(=O)Cc2c(Cl)cncc2Cl)c(OCc2ccccc2)c1OC [Compound 113, 1-(2-Benzyloxy-3,4-dimethoxy-phenyl)-2-(3,5-dichloro-pyridin-4-yl)-ethanone] | < 1
17 | COc1ccc(C(=O)Cc2c(Cl)cncc2Cl)c(OCc2cccc(C#N)c2)c1OC [Compound 152, 3-{6-[2-(3,5-Dichloro-pyridin-4-yl)-acetyl]-2,3-dimethoxy-phenoxymethyl}-benzonitrile] | < 1
18 | COc1ccc(C(=O)Cc2c(Cl)cncc2Cl)c(OC(C)Cc2ccccc2)c1OC (stereo not shown) [Compound 285, 2-(3,5-Dichloro-pyridin-4-yl)-1-[3,4-dimethoxy-2-(1-methyl-2-phenyl-ethoxy)-phenyl]-ethanone] | < 1
19 | COc1ccc(C(=O)Cc2c(Cl)cncc2Cl)c(OCC(=O)NCC(C)(C)C)c1OC [Compound 214] | < 1
20 | CCCNC(=O)COc1c(C(=O)Cc2ccncc2Br)ccc(OC)c1OC [Compound 292, 2-{6-[2-(3-Bromo-pyridin-4-yl)-acetyl]-2,3-dimethoxy-phenoxy}-N-propyl-acetamide] | < 1
21 | COc1ccc(C(=O)Cc2c(Cl)cncc2Cl)c(OCC(=O)N(C)c2ccccc2)c1OC [Compound 206, 2-{6-[2-(3,5-Dichloro-pyridin-4-yl)-acetyl]-2,3-dimethoxy-phenoxy}-N-methyl-N-phenyl-acetamide] | < 1
22 | COc1ccc(C(=O)Cc2c(Cl)cncc2Cl)c(OC)c1OCC1CC1 [Compound 189, 1-(3-Cyclopropylmethoxy-2,4-dimethoxy-phenyl)-2-(3,5-dichloro-pyridin-4-yl)-ethanone] | < 1
23 | COc1ccc(C(=O)Cc2c(Cl)cncc2Cl)c(OCc2ccccc2C#N)c1OC [Compound 147, 2-{6-[2-(3,5-Dichloro-pyridin-4-yl)-acetyl]-2,3-dimethoxy-phenoxymethyl}-benzonitrile] | < 1
24 | COc1ccc(C(=O)Cc2c(Cl)cncc2Cl)c(OCc2ccccc2OC(F)F)c1OC [Compound 168, 2-(3,5-Dichloro-pyridin-4-yl)-1-[2-(2-difluoromethoxy-benzyloxy)-3,4-dimethoxy-phenyl]-ethanone] | < 1
25 | COc1ccc(C(=O)Cc2c(Cl)cncc2Cl)c(OCC(=O)NCc2cccc(C)c2)c1OC [Compound 239, 2-{6-[2-(3,5-Dichloro-pyridin-4-yl)-acetyl]-2,3-dimethoxy-phenoxy}-N-(3-methyl-benzyl)-acetamide] | < 1
26 | COc1cccc(COc2c(C(=O)Cc3c(Cl)cncc3Cl)ccc(OC)c2OC)c1 [Compound 177, 2-(3,5-Dichloro-pyridin-4-yl)-1-[3,4-dimethoxy-2-(3-methoxy-benzyloxy)-phenyl]-ethanone] | < 1
27 | COc1ccc(C(=O)Cc2c(Cl)cncc2Cl)c(OCC(=O)c2ccc3ccccc3c2)c1OC [Compound 157, 2-(3,5-Dichloro-pyridin-4-yl)-1-[3,4-dimethoxy-2-(2-naphthalen-2-yl-2-oxo-ethoxy)-phenyl]-ethanone] | < 1
28 | COc1ccc(C(=O)Cc2c(Cl)cncc2Cl)c(OCC(=O)NCC2CCCCCC2)c1OC [Compound 257, N-Cycloheptylmethyl-2-{6-[2-(3,5-dichloro-pyridin-4-yl)-acetyl]-2,3-dimethoxy-phenoxy}-acetamide] | < 1
